Data on 35 molecules can be found in patent publication US9510598B2, “Nitrogen-containing heterocyclic compounds for plant disease control” (BAYER CROPSCIENCE AG, priority 2012, dated 2016).

One data set deals with Septoria tritici. In words: In vivo preventive test on Septoria tritici (leaf spot on wheat). The conditions noted are these: 500 ppm; wheat plants sprayed 24 hours before contamination; grading 21 to 28 days after contamination vs control plants. Summed up:
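Scipion wheat at 1-leaf stage sprayed with compound, controls receiving acetone/tween/DMSO/water vehicle; 24 h later leaves inoculated with Septoria tritici spores (500 000 spores per ml). Efficacy (%) graded versus control plants 21 to 28 days after contamination.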

A further data set has as its system Sphaerotheca fuliginea. In words: In vivo preventive test on Sphaerotheca fuliginea (powdery mildew on cucurbits). The conditions noted are these: 500 ppm; gherkin plants sprayed 24 hours before contamination; grading 12 days after contamination vs control plants. As for the experimental part: Gherkin plants (“Vert petit de Paris” variety), sown in starter cups on a 50/50 peat soil-pozzolana substrate and grown at 24° C., are treated at the Z11 cotyledon stage by spraying with the active ingredient prepared as described above. Plants, used as controls, are treated with the mixture of acetone/tween/DMSO/water not containing the active material. After 24 hours, the plants are contaminated by spraying the cotyledons with an aqueous suspension of Sphaerotheca fuliginea spores (100 000 spores per ml). The spores are collected from infected plants. […] Grading (% of efficacy) is carried out 12 days after the contamination, in comparison with the control plants.

Data set [1] is classed as physicochemical.
The subject of another data set is Botrytis cinerea. In words: In vivo preventive test on Botrytis cinerea (grey mould). The conditions noted are these: 500 ppm; gherkin plants sprayed 24 hours before contamination; grading 4-5 days after contamination vs control plants. The procedure:
Gherkin plants (“Vert petit de Paris” variety), sown in starter cups on a 50/50 peat soil-pozzolana substrate and grown at 24° C., are treated at the Z11 cotyledon stage by spraying with the active ingredient prepared as described above. Plants, used as controls, are treated with the mixture of acetone/tween/DMSO/water not containing the active material. After 24 hours, the plants are contaminated by spraying the cotyledons with an aqueous suspension of cryopreserved Botrytis cinerea spores (50 000 spores per ml). The spores are suspended in a nutrient solution composed of 10 g/L of PDB, 50 g/L of D-Fructose, 2 g/L of NH4NO3 and 1 g/L of KH2PO4. The contaminated gherkin plants are incubated at 17° C. and at 80% relative humidity. Grading (% of efficacy) is carried out 4-5 days after the contamination, in comparison with the control plants.

The mark [2] stands for this setting: method [a]: HPLC/LC-MS on reversed phase at pH 2.7, 0.1% formic acid in water / acetonitrile, gradient 10% to 95% acetonitrile.
The mark [3] stands for this setting: HPLC on reversed phase columns, method [a]: pH 2.7, 0.1% formic acid in water / acetonitrile, linear gradient 10% to 95% acetonitrile.
The mark [4] stands for this setting: method [a]: HPLC/LC-MS on reversed phase at pH 2.7, 0.1% formic acid in water / acetonitrile, linear gradient 10% to 95% acetonitrile.

Where two headings read alike, the source gives them in different places.

For `CC1COCCC1NC(=O)C1(C)CC(c2ccc3ncc(Br)cc3c2)=NO1` (mixture of isomers) [compound 309], the “% of efficacy (protection)” value with Septoria tritici is 86%; in the data set with Sphaerotheca fuliginea, 100%.

With `CCOCC(C)NC(=O)C1(C)CC(c2ccc3ncc(Br)cc3c2)=NO1` (mixture of isomers) [compound 374], the “% of efficacy (protection)” value with Septoria tritici and in the data set with Sphaerotheca fuliginea was 100% throughout.

Turning to `C#Cc1cnc2ccc(C3=NOC(C)(C(=O)NC(C)CC(=O)OCC)C3)cc2c1` (mixture of isomers) [compound 453], the “log P” value in data set [1] (setting [2]) is 2.57[a]. Further, the “% of efficacy (protection)” value in the data set with Sphaerotheca fuliginea is recorded as 88%.

For the molecule `COCC(C)NC(=O)C1(C)CC(c2ccc3ncc(Br)cc3c2)=NO1` (racemic) [compound 368], the “log P” value in data set [1] (setting [2]) is 2.54[a]. Also, the “% of efficacy (protection)” value in the data set on Septoria tritici and in the data set on Sphaerotheca fuliginea was 100% each time.

Consider `CCC(COC)NC(=O)C1(C)CC(c2ccc3ncc(Br)cc3c2)=NO1` (racemic) [compound 377], for which the “log P” value in data set [1] (setting [2]) is 2.88[a]. For the same molecule, the “% of efficacy (protection)” value came out at 100% in the data set with Septoria tritici and 98% in the data set with Sphaerotheca fuliginea.

Turning to `C#Cc1cnc2ccc(C3=NOC(CC)(C(=O)NC4CC4)C3)cc2c1` (racemic) [compound 439], the “log P” value in data set [1] (setting [2]) is 2.44[a]. The “% of efficacy (protection)” value in the data set on Septoria tritici was found to be 93%; with Sphaerotheca fuliginea, 78%.

`COC1(C(=O)NC(C)C)CC(c2ccc3ncc(Br)cc3c2)=NO1` (single isomer, unassigned) [compound 284]: the “log P” value in data set [1] (setting [3]) was 2.58[a]. For the same molecule, the “% of efficacy (protection)” value in the data set with Septoria tritici and in the data set with Sphaerotheca fuliginea was 100% throughout.

Turning to `CC(C)NC(=O)C1(C)CC(c2ccc3ncc(C#C[Si](C)(C)C)cc3c2)=NO1` (stereo not shown) [Compound No. 150], in data set [1] (HPLC reversed phase, pH 2.7, 0.1% formic acid in water / acetonitrile, linear gradient 10% to 95% acetonitrile, calibration with alkan-2-ones, read-out: log P (HCOOH)), the chromatographic logP was found to be 4.41. Moreover, the “% of efficacy (protection)” value in the data set on Septoria tritici turned out to be 100%; in the data set on Sphaerotheca fuliginea, 95%.

As to `CCn1cc(CNC(=O)C2(C(F)(F)F)CC(c3cc4cc(Br)cnc4c(F)c3F)=NO2)c(C)n1` (stereo not shown) [compound 6], the “Log P” value in data set [1] (method [a]: HPLC/LC-MS on reversed phase at pH 2.7, 0.1% formic acid in water and acetonitrile, linear gradient 10% to 95% acetonitrile) was 3.23^[a]. Also, the “% of efficacy (protection)” value with Septoria tritici is 71%; in the data set with Sphaerotheca fuliginea it was 89%.

Take `CSc1cnc2ccc(C3=NOC(C)(C(=O)NC(C)C)C3)cc2c1` (stereo not shown) [compound 80]: the “log P” value in data set [1] (setting [4]) is 2.44^[a]. In addition, the “% of efficacy (protection)” value with Sphaerotheca fuliginea turned out to be 93%.

Turning to `Cn1cc(CNC(=O)C2(C)CC(c3ccc4ncc(Br)cc4c3)=NO2)cn1` (stereo not shown) [compound 176], the “log P” value in data set [1] (setting [4]) is 2.07^[a]. Moreover, the “% of efficacy (protection)” value in the data set on Septoria tritici is 93%; in the data set with Sphaerotheca fuliginea, 83%.

As for `CCn1cc(CNC(=O)C23CCCC2C(c2ccc4ncc(Br)cc4c2)=NO3)c(C)n1` (stereo not shown) [compound 261], the “log P” value in data set [1] (setting [3]) was 2.75^[a]. The “% of efficacy (protection)” value in the data set on Septoria tritici is given as 97%; in the data set with Sphaerotheca fuliginea, 85%.

`CCSc1cnc2ccc(C3=NOC(C)(C(=O)NC(C)C)C3)cc2c1` (stereo not shown) [compound 277]: in data set [1] (setting [3]), the “log P” value is 2.81[a]. Also, the “% of efficacy (protection)” value with Sphaerotheca fuliginea stood at 71%.

As to `C#Cc1cnc2ccc(C3=NOC(C)(C(=O)NC4CC4)C3)cc2c1` (stereo not shown) [compound 314], in data set [1] (setting [3]), the “log P” value is 2.13[a]. The “% of efficacy (protection)” value in the data set with Septoria tritici is 100%; in the data set with Sphaerotheca fuliginea, 81%.

Regarding `CC1(C(=O)NCCCOCC(F)(F)F)CC(c2ccc3ncc(Br)cc3c2)=NO1` (stereo not shown) [compound 323], the “log P” value in data set [1] (setting [3]) is 3.11[a]. The “% of efficacy (protection)” value with Septoria tritici came out at 78%; with Sphaerotheca fuliginea it was 81%.

For the molecule `C#Cc1cnc2ccc(C3=NOC(C)(C(=O)NCCCOCC(F)(F)F)C3)cc2c1` (stereo not shown) [compound 326], in data set [1] (setting [3]), the “log P” value was 2.77[a]. Moreover, the “% of efficacy (protection)” value in the data set on Septoria tritici is on record as 98%; in the data set on Sphaerotheca fuliginea, 88%.

`CC(NC(=O)C1(C)CC(c2ccc3ncc(Br)cc3c2)=NO1)C1CC1` (stereo not shown) [compound 332]: the “log P” value in data set [1] (setting [3]) is 3.17[a]. The results for the “% of efficacy (protection)” value with Septoria tritici and in the data set on Sphaerotheca fuliginea were 100% and 98%, respectively.

Consider `C#Cc1cnc2ccc(C3=NOC(C)(C(=O)NC(C)c4nccs4)C3)cc2c1` (stereo not shown) [compound 334], for which the “log P” value in data set [1] (setting [3]) was 2.28[a]. In addition, the “% of efficacy (protection)” value was 100% in the data set with Septoria tritici and 94% in the data set with Sphaerotheca fuliginea.

Regarding `C#Cc1cnc2ccc(C3=NOC(C)(C(=O)NC(C)c4ccsc4)C3)cc2c1` (stereo not shown) [compound 336], the “log P” value in data set [1] (setting [3]) is 2.96[a]. Besides, the “% of efficacy (protection)” value in the data set with Septoria tritici was 100%; in the data set on Sphaerotheca fuliginea it was 81%.

Turning to `CC(NC(=O)C1(C)CC(c2ccc3ncc(Br)cc3c2)=NO1)c1ccncc1` (stereo not shown) [compound 337], in data set [1] (setting [3]), the “log P” value is 1.44[a]. Moreover, the “% of efficacy (protection)” value in the data set on Septoria tritici was determined as 78%; in the data set on Sphaerotheca fuliginea, 88%.

As for `C#Cc1cnc2ccc(C3=NOC(C)(C(=O)NC(C)C4CCOC4)C3)cc2c1` (stereo not shown) [compound 341], the “log P” value in data set [1] (setting [3]) was 2.18[a]. For the same molecule, the “% of efficacy (protection)” value in the data set on Septoria tritici is given as 100%; with Sphaerotheca fuliginea it was 98%.

`C#Cc1cnc2ccc(C3=NOC(C)(C(=O)NC(C)C(F)(F)F)C3)cc2c1` (stereo not shown) [compound 343]: the “log P” value in data set [1] (setting [3]) is 2.77[a]. Also, the “% of efficacy (protection)” value in the data set on Septoria tritici and with Sphaerotheca fuliginea was 100% each time.

In the case of `CC(NC(=O)C1(C)CC(c2ccc3ncc(Br)cc3c2)=NO1)C(F)(F)F` (stereo not shown) [compound 345], the “log P” value in data set [1] (setting [3]) is 3.13[a]. The “% of efficacy (protection)” value in the data set on Septoria tritici is 100%; in the data set with Sphaerotheca fuliginea, 94%.

Regarding `C#Cc1cnc2ccc(C3=NOC(OC)(C(=O)NCCCOCC)C3)cc2c1` (stereo not shown) [compound 408], the “log P” value in data set [1] (setting [2]) is 2.39[a]. In addition, the “% of efficacy (protection)” value in the data set with Septoria tritici and in the data set on Sphaerotheca fuliginea was 100% in each case.

With `C#CCONC(=O)C1(C)CC(c2ccc3ncc(C#C)cc3c2)=NO1` (stereo not shown) [compound 503], in data set [1] (setting [2]), the “log P” value was 1.95[a]. Further, the entries for the “% of efficacy (protection)” value in the data set with Septoria tritici and with Sphaerotheca fuliginea were 71% and 78%, respectively.

`C#Cc1cnc2ccc(C3=NOC(C)(C(=O)NC(C)(C#N)C4CC4)C3)cc2c1` (stereo not shown) [compound 523]: in data set [1] (setting [3]), the “log P” value was 2.75[a]. Also, the “% of efficacy (protection)” value in the data set with Botrytis cinerea worked out at 73%; with Septoria tritici, 97%.

Take `C#Cc1cnc2ccc(C3=NOC(C)(C(=O)NC(C)c4ccc(Cl)nc4)C3)cc2c1` (stereo not shown) [compound 525]: the “log P” value in data set [1] (setting [3]) is 2.68[a]. For the same molecule, the “% of efficacy (protection)” value worked out at 100% with Botrytis cinerea and 93% with Septoria tritici.

With `CCNC(=O)C1(C)CC(c2ccc3ncc(Br)cc3c2)=NO1` (stereo not shown) [compound 528], in data set [1] (setting [3]), the “log P” value is 2.39[a]. Besides, the “% of efficacy (protection)” value in the data set on Botrytis cinerea is recorded as 99%; in the data set on Septoria tritici, 97%.

`C#Cc1cnc2ccc(C3=NOC(C)(C(=O)Nc4cn(CC)nc4C)C3)cc2c1` (stereo not shown) [compound 529]: in data set [1] (setting [3]), the “log P” value is 2.26[a]. Further, the “% of efficacy (protection)” value in the data set on Botrytis cinerea and in the data set on Septoria tritici was 100% each time.

Take `Cc1cnc(CNC(=O)C2(C)CC(c3cc(C)c4ncc(Br)cc4c3)=NO2)cn1` (stereo not shown) [compound 537]: the “log P” value in data set [1] (setting [3]) is 2.84[a]. The “% of efficacy (protection)” value in the data set with Botrytis cinerea and with Septoria tritici was 100% throughout.

`CC1(C(=O)NC2CCC2)CC(c2cc(Cl)c3ncc(Br)cc3c2)=NO1` (stereo not shown) [compound 539]: the “log P” value in data set [1] (setting [3]) was 3.48[a]. Further, the “% of efficacy (protection)” value with Botrytis cinerea is 100%; with Septoria tritici, 83%.

Take `CCOCCCNC(=O)C1(C)CC(c2cc(Cl)c3ncc(Br)cc3c2)=NO1` (stereo not shown) [compound 542]: in data set [1] (setting [3]), the “log P” value was 3.25[a]. The “% of efficacy (protection)” value with Botrytis cinerea is on record as 100%; in the data set with Septoria tritici, 83%.

On to `CCn1cc(CNC(=O)C2(OC)CC(c3cc(Cl)c4ncc(Br)cc4c3)=NO2)c(C)n1` (stereo not shown) [compound 566], for which the “log P” value in data set [1] (setting [3]) is 2.78[a]. The “% of efficacy (protection)” value in the data set with Septoria tritici is 100%; in the data set with Sphaerotheca fuliginea, 89%.

Take `CCOCCCNC(=O)C1(OC)CC(c2cc(C)c3ncc(Br)cc3c2)=NO1` (stereo not shown) [compound 597]: the “log P” value in data set [1] (setting [3]) is 3.39[a]. The “% of efficacy (protection)” value in the data set with Botrytis cinerea and with Septoria tritici was 100% each time.

For the molecule `CCOCCCNC(=O)C1(C(F)F)CC(c2ccc3ncc(I)cc3c2)=NO1` (stereo not shown) [compound 619], the “log P” value in data set [1] (setting [3]) is 3.19[a]. Further, the “% of efficacy (protection)” value with Botrytis cinerea came to 73%; in the data set with Septoria tritici, 71%.
